Columns and labels:
mustard, wild = assay: Test D preemergence; assay type: in vivo, Sinapis arvensis; details: scale 0 to 100
Procedure, shortened: (§1)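 Preemergence: seeds sown in silt loam soil and sprayed with test chemical in non-phytotoxic solvent mixture with surfactant. Postemergence: plants grown in peat/vermiculite medium, sprayed at 2–18 cm (1- to 4-leaf stage). Visual rating versus untreated controls after 14–21 days, 0 (no effect) to 100 (complete control).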

green foxtail = assay: Test F preemergence; assay type: in vivo, Setaria viridis
Procedure, shortened: (§2)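 Visual rating 0–100 vs untreated controls (0 = no effect, 100 = complete control) after 14–21 d greenhouse. Pre: seeds in silt loam soil. Post: plants 2–18 cm, 1–4 leaf. Formulation: non-phytotoxic solvent mix + surfactant.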

arrowleaf sida = assay: Test F preemergence; assay type: in vivo, Sida rhombifolia
Procedure, shortened: as §2

bluegrass = assay: Test D preemergence; assay type: in vivo, Poa annua; details: scale 0 to 100
Procedure, shortened: as §1

wheat, winter = assay: Test D preemergence; assay type: in vivo, Triticum aestivum; details: scale 0 to 100
Procedure, shortened: as §1

wheat, spring = assay: Test D preemergence; assay type: in vivo, Triticum aestivum; details: scale 0 to 100
Procedure, shortened: as §1

radish, wild = assay: Test D preemergence; assay type: in vivo, Raphanus raphanistrum; details: scale 0 to 100
Procedure, shortened: as §1

common ragweed = assay: Test F preemergence; assay type: in vivo, Ambrosia elation
Procedure, shortened: as §2

oilseed rape = assay: Test D preemergence; assay type: in vivo, Brassica napus; details: scale 0 to 100
Procedure, shortened: as §1

fall panicum = assay: Test F preemergence; assay type: in vivo, Panicum dichotomiflorum
Procedure, shortened: as §2

field bindweed = assay: Test F preemergence; assay type: in vivo, Convolvulus arvensis
Procedure, shortened: as §2

blackgrass = assay: Test D postemergence; assay type: in vivo, Alopecurus myosuroides; details: scale 0 to 100
Procedure, shortened: as §1

corn = assay: Test F preemergence; assay type: in vivo, Zea mays
Procedure, shortened: as §2

deadnettle = assay: Test D preemergence; assay type: in vivo, Lamium amplexicaule; details: scale 0 to 100
Procedure, shortened: as §1

[1] = Preemergence, 62 g ai/ha, scale 0 to 100
[2] = Preemergence, 125 g ai/ha, scale 0 to 100
[3] = preemergence, 8 g ai/ha, scale 0 to 100, 100 is complete control
[4] = Preemergence, 16 g ai/ha, scale 0 to 100

## CCOc1cc(C(=O)NC(C)C)nn1Cc1ccnc(C(F)(F)F)c1 [Compound 188]
mustard, wild; 62 g ai/ha
  Plant response rating, Mustard, Wild: 100
mustard, wild; 125 g ai/ha
  Plant response rating, Mustard, Wild: 100
mustard, wild; 250 g ai/ha
  Plant response rating, Mustard, Wild: 100
Green foxtail; [1]
  Plant response rating, Green Foxtail: 100
Green foxtail; [2]
  Plant response rating, Green Foxtail: 100
Green foxtail; [3]
  Plant response rating, Green Foxtail: 5
Arrowleaf sida; [4]
  Plant response rating, Arrowleaf Sida: 0
Arrowleaf sida; [1]
  Plant response rating, Arrowleaf Sida: 10
Arrowleaf sida; [2]
  Plant response rating, Arrowleaf Sida: 20
Arrowleaf sida; [3]
  Plant response rating, Arrowleaf Sida: 0
bluegrass; 31 g ai/ha
  Plant response rating, Bluegrass: 55
bluegrass; 62 g ai/ha
  Plant response rating, Bluegrass: 70
bluegrass; 125 g ai/ha
  Plant response rating, Bluegrass: 100
bluegrass; 250 g ai/ha
  Plant response rating, Bluegrass: 100
wheat, winter; 62 g ai/ha
  Plant response rating, Wheat, Winter: 65
wheat, winter; 125 g ai/ha
  Plant response rating, Wheat, Winter: 95
wheat, winter; 250 g ai/ha
  Plant response rating, Wheat, Winter: 100
wheat, spring; 62 g ai/ha
  Plant response rating, Wheat, Spring: 70
wheat, spring; 125 g ai/ha
  Plant response rating, Wheat, Spring: 100
wheat, spring; 250 g ai/ha
  Plant response rating, Wheat, Spring: 100
radish, wild; 62 g ai/ha
  Plant response rating, Radish, Wild: 100
radish, wild; 125 g ai/ha
  Plant response rating, Radish, Wild: 100
radish, wild; 250 g ai/ha
  Plant response rating, Radish, Wild: 100
Common ragweed; [4]
  Plant response rating, Common Ragweed: 30
Common ragweed; [1]
  Plant response rating, Common Ragweed: 90
Common ragweed; [2]
  Plant response rating, Common Ragweed: 90
Common ragweed; [3]
  Plant response rating, Common Ragweed: 0
Oilseed rape; 62 g ai/ha
  Plant response rating, Oilseed Rape: 85
Oilseed rape; 125 g ai/ha
  Plant response rating, Oilseed Rape: 100
Oilseed rape; 250 g ai/ha
  Plant response rating, Oilseed Rape: 100
Fall panicum; [4]
  Plant response rating, Fall Panicum: 100
Fall panicum; [1]
  Plant response rating, Fall Panicum: 100
Fall panicum; [2]
  Plant response rating, Fall Panicum: 100
Fall panicum; [3]
  Plant response rating, Fall Panicum: 75
Field bindweed; [4]
  Plant response rating, Field Bindweed: 30
Field bindweed; [1]
  Plant response rating, Field Bindweed: 40
Field bindweed; [2]
  Plant response rating, Field Bindweed: 100
Field bindweed; [3]
  Plant response rating, Field Bindweed: 35
blackgrass; Postemergence, 31 g ai/ha
  Blackgrass plant response rating: 15
blackgrass; Postemergence, 125 g ai/ha
  Blackgrass plant response rating: 35
blackgrass; Postemergence, 250 g ai/ha
  Blackgrass plant response rating: 45
blackgrass; postemergence, 62 g ai/ha
  Blackgrass plant response rating: 15
corn; [1]
  Plant response rating, Corn: 15
corn; [2]
  Plant response rating, Corn: 65
corn; [3]
  Plant response rating, Corn: 20
deadnettle; 31 g ai/ha
  Plant response rating, Deadnettle: 100
deadnettle; 62 g ai/ha
  Plant response rating, Deadnettle: 100
deadnettle; 125 g ai/ha
  Plant response rating, Deadnettle: 100
deadnettle; 250 g ai/ha
  Plant response rating, Deadnettle: 100
